Assay results reported in patent US12286443B2, “Bycyclic JAK inhibitors and uses thereof” (Insilico Medicine IP Limited, priority 2019, dated 2025).

Each compound was assayed against T1, JAK3 (Homo sapiens, UniProt P52333) (assay: Inhibition of JAK3 kinase, LANCE Ultra TR-FRET assay). Settings: 2x ATP 8 μM, 15 min pre-incubation, 90 min reaction, 23° C.
T1 construct: purchased Invitrogen PV4080
T1 sequence (P52333 1-1124): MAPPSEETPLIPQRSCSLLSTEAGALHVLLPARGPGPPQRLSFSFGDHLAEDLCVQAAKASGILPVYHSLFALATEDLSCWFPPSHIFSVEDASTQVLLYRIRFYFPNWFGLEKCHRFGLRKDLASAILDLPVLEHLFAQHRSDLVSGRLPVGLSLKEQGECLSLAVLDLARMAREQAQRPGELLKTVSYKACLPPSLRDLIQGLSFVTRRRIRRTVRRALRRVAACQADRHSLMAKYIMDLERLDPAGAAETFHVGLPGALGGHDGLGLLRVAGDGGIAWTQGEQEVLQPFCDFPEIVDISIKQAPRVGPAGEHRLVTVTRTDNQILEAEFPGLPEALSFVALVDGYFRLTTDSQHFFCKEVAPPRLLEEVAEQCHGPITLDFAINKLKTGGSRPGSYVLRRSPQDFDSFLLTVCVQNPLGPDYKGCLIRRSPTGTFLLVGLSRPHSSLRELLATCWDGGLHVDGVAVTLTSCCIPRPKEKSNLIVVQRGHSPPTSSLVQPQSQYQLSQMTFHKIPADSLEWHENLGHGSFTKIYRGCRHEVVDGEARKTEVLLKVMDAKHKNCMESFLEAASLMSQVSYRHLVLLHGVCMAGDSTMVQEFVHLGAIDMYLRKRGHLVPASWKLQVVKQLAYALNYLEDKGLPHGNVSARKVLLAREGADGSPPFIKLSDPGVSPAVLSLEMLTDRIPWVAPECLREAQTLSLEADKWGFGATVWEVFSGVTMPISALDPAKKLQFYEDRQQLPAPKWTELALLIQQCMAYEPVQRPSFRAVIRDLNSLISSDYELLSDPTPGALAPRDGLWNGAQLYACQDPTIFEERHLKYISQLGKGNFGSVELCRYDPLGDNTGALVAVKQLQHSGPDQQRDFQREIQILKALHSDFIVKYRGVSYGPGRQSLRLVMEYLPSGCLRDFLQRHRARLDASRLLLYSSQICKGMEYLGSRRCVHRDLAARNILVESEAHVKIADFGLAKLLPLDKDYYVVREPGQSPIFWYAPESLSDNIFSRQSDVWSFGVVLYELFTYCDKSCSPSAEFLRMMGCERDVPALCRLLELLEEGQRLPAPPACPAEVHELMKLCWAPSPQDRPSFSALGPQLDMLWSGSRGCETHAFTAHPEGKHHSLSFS
Assay type: biochemical
Method: (§1) Exemplary compounds were assayed to determine potency in inhibiting activity of JAK1-3 and TYK2 kinases by determining IC50 values.
(§2) The sources of test materials and equipment are as follows: JAK1 (Invitrogen, Cat. No PV4775), JAK2 (Invitrogen, Cat. No PV4210), JAK3 (Invitrogen, Cat. No PV4080), TYK2 (Invitrogen, Cat. No PR8440C), ATP (Sigma, Cat. No. A7699-1G), DMSO (Sigma, Cat. No. D2650), DTT (Sigma, Cat. No. 43815), 384 wells_compound plate (Greiner, Cat. No. 781280), 384 wells_assay plate (Perkin Elmer, Cat. No. 6007299), LANCE Ultra ULight™-JAK-1 peptide (Perkin Elmer, Cat. No. TRF0121), LANCET™ Eu-W1024 Anti-phosphotyrosine (PT66) (Perkin Elmer, Cat. No. AD0069), LANCET™ Detection Buffer(Perkin Elmer, Cat. No. CR97-100).
(§3) The concentrations of test compounds varied from 100 μM to 1.7 nM with 3-fold dilution, 11 points, in duplicates while the concentrations of the reference compound, Tofacitinib, varied from 1 μM to 0.017 nM with 3-fold dilution, 11 points, in duplicates.
(§4) The assay buffer contained 50 mM HEPES (pH 7.5), 0.01% Brij-35, 10 mM MgCl2, 1 mM EDTA, 2 mM DTT. Incubations were carried out at 23° C.
(§5) Prior to the assay, enzyme, peptide substrate and serially diluted test compounds were pre-incubated together in assay buffer (5 μL) for 15 minutes (peptide substrate concentration: 50 nM; JAK enzyme concentrations: 2 nM JAK1; […]; […] and 4 nM TYK2). And the assay was initiated by the addition of 5 μL assay buffer containing 2× final ATP concentration (these are the 2×ATP concentrations: 76 μM JAK1; 24 μM JAK2; 8 μM JAK3 and 30 μM TYK2). Following the 90-minute incubation, antibody conjugated with Eu is dissolved in detection buffer to add into wells and then incubated for 60 minutes. The 10 μL detection buffer contains EDTA to stop the enzymatic reaction. The plate is analyzed by Perkin Elmer Envision on TR-FRET mode. The high ratio of 665/615 represents no inhibition of kinase reaction while the low ratio of 665/615 represents complete inhibition of kinase reaction.
(§6) Curves are fit by XLFIT5 as inhibition rate % vs. log [compound concentration] using 4 parameters logistic model 205.
(§7) In the table, “A” indicates an IC50 of less than 100 nM, “B” indicates an IC50 range from 100 nM to 500 nM; “C” indicates an IC50 range from 500 nM to 2 μM; and “D” indicates an IC50 greater than 2 μM. Also, “na” indicates data is not available.

Row | IC50 [nM] | Compound
1 | 100 to 500 | CN(C)S(=O)(=O)CCNC(=O)c1noc2c1CN(c1ncnc3[nH]ccc13)CC2 [Compound 156]
2 | 100 to 500 | O=C(NCCC(F)(F)F)c1noc2c1CN(c1ncnc3[nH]cnc13)CC2 [Compound 188]
3 | 100 to 500 | O=C(NCCS(=O)(=O)N1CCC1)c1noc2c1CN(c1ncnc3[nH]ccc13)CC2 [Compound 134]
4 | < 100 | Cn1nc(C(=O)NCCC(F)(F)F)c2c1CCN(c1ncnc3[nH]ccc13)C2 [Compound 107]
5 | 100 to 500 | O=C(NCCS(=O)(=O)N1CCCC1)c1noc2c1CN(c1ncnc3[nH]ccc13)CC2 [Compound 135]
6 | 100 to 500 | O=C(NCCC(F)(F)F)c1nn(CCCc2ccccc2)c2c1CN(c1ncnc3[nH]ccc13)CC2 [Compound 115]
7 | < 100 | O=C(NCCC(F)(F)F)c1nn(-c2ccccc2)c2c1CN(c1ncnc3[nH]ccc13)CC2 [Compound 114]
8 | < 100 | O=C(NCCc1ccccc1)c1noc2c1CN(c1ncnc3[nH]ccc13)CC2 [Compound 163]
9 | < 100 | Cn1cc(C(=O)NCCC(F)(F)F)c2c1CCN(c1ncnc3[nH]ccc13)C2 [Compound 130]
10 | 500 to 2000 | Cn1nc(C(=O)N[C@H]2C[C@H](C(=O)NCCC(F)(F)F)C2)c2c1CCN(c1ncnc3[nH]ccc13)C2 [Compound 124]
11 | 100 to 500 | O=C(NCCC1(O)CC(F)(F)C1)c1noc2c1CN(c1ncnc3[nH]ccc13)CC2 [Compound 149]
12 | < 100 | O=C(NCCCC1(O)CC1)c1noc2c1CN(c1ncnc3[nH]ccc13)CC2 [Compound 144]
13 | 100 to 500 | CSC(CNC(=O)c1noc2c1CN(c1ncnc3[nH]ccc13)CC2)C(F)(F)F (centres unmarked) [Compound 191]
14 | < 100 | O=C(NCC1CC1)c1noc2c1CN(c1ncnc3[nH]ccc13)CC2 [Compound 180]

Each compound was assayed against T2, JAK1 (Homo sapiens, UniProt P23458) (assay: Inhibition of JAK1 kinase, LANCE Ultra TR-FRET assay). Settings: 2 nM JAK1, 2x ATP 76 μM, 15 min pre-incubation, 90 min reaction, 23° C.
T2 construct: purchased Invitrogen PV4775
T2 sequence (P23458 whole entry): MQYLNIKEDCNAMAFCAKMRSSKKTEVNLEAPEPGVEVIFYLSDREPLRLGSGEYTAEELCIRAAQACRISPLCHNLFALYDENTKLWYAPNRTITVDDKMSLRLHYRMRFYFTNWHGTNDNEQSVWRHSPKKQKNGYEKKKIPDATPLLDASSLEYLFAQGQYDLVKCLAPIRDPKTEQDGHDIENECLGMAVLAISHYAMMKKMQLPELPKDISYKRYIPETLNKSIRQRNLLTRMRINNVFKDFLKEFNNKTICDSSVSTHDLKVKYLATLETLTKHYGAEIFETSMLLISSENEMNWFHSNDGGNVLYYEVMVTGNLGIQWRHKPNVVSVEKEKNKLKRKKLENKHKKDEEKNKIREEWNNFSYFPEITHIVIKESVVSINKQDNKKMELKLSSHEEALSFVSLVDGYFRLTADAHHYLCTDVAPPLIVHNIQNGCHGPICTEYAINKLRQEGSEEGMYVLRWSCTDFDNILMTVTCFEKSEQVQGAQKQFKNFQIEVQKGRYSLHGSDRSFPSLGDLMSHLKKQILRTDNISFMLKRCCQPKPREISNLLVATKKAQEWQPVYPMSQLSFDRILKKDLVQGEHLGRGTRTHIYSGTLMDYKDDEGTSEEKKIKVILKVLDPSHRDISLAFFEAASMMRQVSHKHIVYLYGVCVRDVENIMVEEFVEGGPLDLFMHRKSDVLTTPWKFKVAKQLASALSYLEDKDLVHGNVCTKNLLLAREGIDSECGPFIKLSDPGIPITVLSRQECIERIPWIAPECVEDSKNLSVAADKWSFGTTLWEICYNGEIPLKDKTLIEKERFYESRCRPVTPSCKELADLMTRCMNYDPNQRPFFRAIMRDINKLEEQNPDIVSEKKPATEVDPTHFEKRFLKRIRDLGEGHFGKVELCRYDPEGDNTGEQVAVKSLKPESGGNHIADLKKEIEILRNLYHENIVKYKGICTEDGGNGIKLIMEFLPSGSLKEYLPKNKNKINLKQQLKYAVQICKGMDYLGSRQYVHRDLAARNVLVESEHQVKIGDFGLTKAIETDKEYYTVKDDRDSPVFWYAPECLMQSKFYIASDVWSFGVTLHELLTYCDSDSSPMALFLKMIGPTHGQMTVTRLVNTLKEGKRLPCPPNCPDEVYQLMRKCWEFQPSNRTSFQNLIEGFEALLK
Assay type: biochemical
Method: as §1, §2, §3, §4, §5, §6, §7

Row | IC50 [nM] | Compound
15 | 100 to 500 | CN(C)S(=O)(=O)CCNC(=O)c1noc2c1CN(c1ncnc3[nH]ccc13)CC2 [Compound 156]
16 | 100 to 500 | O=C(NCCC(F)(F)F)c1noc2c1CN(c1ncnc3[nH]cnc13)CC2 [Compound 188]
17 | 500 to 2000 | O=C(NCCS(=O)(=O)N1CCC1)c1noc2c1CN(c1ncnc3[nH]ccc13)CC2 [Compound 134]
18 | < 100 | Cn1nc(C(=O)NCCC(F)(F)F)c2c1CCN(c1ncnc3[nH]ccc13)C2 [Compound 107]
19 | 100 to 500 | O=C(NCCS(=O)(=O)N1CCCC1)c1noc2c1CN(c1ncnc3[nH]ccc13)CC2 [Compound 135]
20 | 500 to 2000 | O=C(NCCC(F)(F)F)c1nn(CCCc2ccccc2)c2c1CN(c1ncnc3[nH]ccc13)CC2 [Compound 115]
21 | 100 to 500 | O=C(NCCC(F)(F)F)c1nn(-c2ccccc2)c2c1CN(c1ncnc3[nH]ccc13)CC2 [Compound 114]
22 | 100 to 500 | O=C(NCCc1ccccc1)c1noc2c1CN(c1ncnc3[nH]ccc13)CC2 [Compound 163]
23 | < 100 | Cn1cc(C(=O)NCCC(F)(F)F)c2c1CCN(c1ncnc3[nH]ccc13)C2 [Compound 130]
24 | 500 to 2000 | Cn1nc(C(=O)N[C@H]2C[C@H](C(=O)NCCC(F)(F)F)C2)c2c1CCN(c1ncnc3[nH]ccc13)C2 [Compound 124]
25 | 500 to 2000 | O=C(NCCC1(O)CC(F)(F)C1)c1noc2c1CN(c1ncnc3[nH]ccc13)CC2 [Compound 149]
26 | 100 to 500 | O=C(NCCCC1(O)CC1)c1noc2c1CN(c1ncnc3[nH]ccc13)CC2 [Compound 144]
27 | 100 to 500 | CSC(CNC(=O)c1noc2c1CN(c1ncnc3[nH]ccc13)CC2)C(F)(F)F (centres unmarked) [Compound 191]
28 | 100 to 500 | O=C(NCC1CC1)c1noc2c1CN(c1ncnc3[nH]ccc13)CC2 [Compound 180]

The compounds below were run against T3, TYK2 (Homo sapiens, UniProt P29597) (assay: Inhibition of TYK2 kinase, LANCE Ultra TR-FRET assay). Settings: 4 nM TYK2, 2x ATP 30 μM, 15 min pre-incubation, 90 min reaction, 23° C., read-out: tyk IC50.
T3 construct: purchased Invitrogen PR8440C
T3 sequence (P29597 whole entry): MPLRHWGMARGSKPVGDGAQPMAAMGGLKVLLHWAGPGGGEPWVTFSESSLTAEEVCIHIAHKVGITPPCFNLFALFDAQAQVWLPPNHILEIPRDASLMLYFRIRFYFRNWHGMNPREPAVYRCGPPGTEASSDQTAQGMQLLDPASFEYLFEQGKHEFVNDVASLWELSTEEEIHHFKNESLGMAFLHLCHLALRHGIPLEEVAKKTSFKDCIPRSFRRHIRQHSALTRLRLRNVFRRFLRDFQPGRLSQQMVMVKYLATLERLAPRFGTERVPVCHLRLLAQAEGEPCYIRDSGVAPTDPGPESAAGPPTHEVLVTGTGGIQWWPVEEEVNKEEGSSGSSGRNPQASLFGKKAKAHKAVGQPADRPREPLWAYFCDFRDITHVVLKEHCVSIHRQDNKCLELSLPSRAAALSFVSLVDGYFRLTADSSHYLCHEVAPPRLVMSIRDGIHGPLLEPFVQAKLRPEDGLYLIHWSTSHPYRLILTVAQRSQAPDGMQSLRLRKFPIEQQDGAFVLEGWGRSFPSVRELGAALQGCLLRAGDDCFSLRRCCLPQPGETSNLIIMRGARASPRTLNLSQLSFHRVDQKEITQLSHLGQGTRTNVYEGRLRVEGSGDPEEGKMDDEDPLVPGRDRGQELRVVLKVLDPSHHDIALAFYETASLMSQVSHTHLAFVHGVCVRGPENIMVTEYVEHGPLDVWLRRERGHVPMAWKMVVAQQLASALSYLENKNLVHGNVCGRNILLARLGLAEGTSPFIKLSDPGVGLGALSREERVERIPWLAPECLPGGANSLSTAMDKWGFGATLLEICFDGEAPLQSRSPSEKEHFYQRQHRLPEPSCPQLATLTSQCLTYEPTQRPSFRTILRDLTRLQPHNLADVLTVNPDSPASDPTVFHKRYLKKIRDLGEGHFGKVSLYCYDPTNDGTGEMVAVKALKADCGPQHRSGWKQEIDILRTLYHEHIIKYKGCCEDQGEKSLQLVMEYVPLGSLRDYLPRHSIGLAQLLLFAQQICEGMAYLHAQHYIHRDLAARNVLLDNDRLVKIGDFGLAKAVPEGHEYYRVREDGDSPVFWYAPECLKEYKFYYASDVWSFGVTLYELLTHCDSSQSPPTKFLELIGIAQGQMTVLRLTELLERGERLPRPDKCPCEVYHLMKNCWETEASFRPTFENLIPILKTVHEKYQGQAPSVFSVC
Assay type: biochemical
Method: as §1, §2, §3, §4, §5, §6, §7

Row | IC50 [nM] | Compound
29 | > 2000 | CN(C)S(=O)(=O)CCNC(=O)c1noc2c1CN(c1ncnc3[nH]ccc13)CC2 [Compound 156]
30 | > 2000 | O=C(NCCC(F)(F)F)c1noc2c1CN(c1ncnc3[nH]cnc13)CC2 [Compound 188]
31 | > 2000 | O=C(NCCS(=O)(=O)N1CCC1)c1noc2c1CN(c1ncnc3[nH]ccc13)CC2 [Compound 134]
32 | 500 to 2000 | Cn1nc(C(=O)NCCC(F)(F)F)c2c1CCN(c1ncnc3[nH]ccc13)C2 [Compound 107]
33 | > 2000 | O=C(NCCS(=O)(=O)N1CCCC1)c1noc2c1CN(c1ncnc3[nH]ccc13)CC2 [Compound 135]
34 | > 2000 | O=C(NCCC(F)(F)F)c1nn(CCCc2ccccc2)c2c1CN(c1ncnc3[nH]ccc13)CC2 [Compound 115]
35 | 500 to 2000 | O=C(NCCC(F)(F)F)c1nn(-c2ccccc2)c2c1CN(c1ncnc3[nH]ccc13)CC2 [Compound 114]
36 | > 2000 | O=C(NCCc1ccccc1)c1noc2c1CN(c1ncnc3[nH]ccc13)CC2 [Compound 163]
37 | 100 to 500 | Cn1cc(C(=O)NCCC(F)(F)F)c2c1CCN(c1ncnc3[nH]ccc13)C2 [Compound 130]
38 | > 2000 | Cn1nc(C(=O)N[C@H]2C[C@H](C(=O)NCCC(F)(F)F)C2)c2c1CCN(c1ncnc3[nH]ccc13)C2 [Compound 124]
39 | > 2000 | O=C(NCCC1(O)CC(F)(F)C1)c1noc2c1CN(c1ncnc3[nH]ccc13)CC2 [Compound 149]
40 | > 2000 | O=C(NCCCC1(O)CC1)c1noc2c1CN(c1ncnc3[nH]ccc13)CC2 [Compound 144]
41 | > 2000 | CSC(CNC(=O)c1noc2c1CN(c1ncnc3[nH]ccc13)CC2)C(F)(F)F (centres unmarked) [Compound 191]
42 | > 2000 | O=C(NCC1CC1)c1noc2c1CN(c1ncnc3[nH]ccc13)CC2 [Compound 180]

What follows are compounds tested against T4, JAK2 (Homo sapiens, UniProt O60674) (assay: Inhibition of JAK2 kinase, LANCE Ultra TR-FRET assay). Settings: 2x ATP 24 μM, 15 min pre-incubation, 90 min reaction, 23° C.
T4 construct: purchased Invitrogen PV4210
T4 sequence (O60674 whole entry): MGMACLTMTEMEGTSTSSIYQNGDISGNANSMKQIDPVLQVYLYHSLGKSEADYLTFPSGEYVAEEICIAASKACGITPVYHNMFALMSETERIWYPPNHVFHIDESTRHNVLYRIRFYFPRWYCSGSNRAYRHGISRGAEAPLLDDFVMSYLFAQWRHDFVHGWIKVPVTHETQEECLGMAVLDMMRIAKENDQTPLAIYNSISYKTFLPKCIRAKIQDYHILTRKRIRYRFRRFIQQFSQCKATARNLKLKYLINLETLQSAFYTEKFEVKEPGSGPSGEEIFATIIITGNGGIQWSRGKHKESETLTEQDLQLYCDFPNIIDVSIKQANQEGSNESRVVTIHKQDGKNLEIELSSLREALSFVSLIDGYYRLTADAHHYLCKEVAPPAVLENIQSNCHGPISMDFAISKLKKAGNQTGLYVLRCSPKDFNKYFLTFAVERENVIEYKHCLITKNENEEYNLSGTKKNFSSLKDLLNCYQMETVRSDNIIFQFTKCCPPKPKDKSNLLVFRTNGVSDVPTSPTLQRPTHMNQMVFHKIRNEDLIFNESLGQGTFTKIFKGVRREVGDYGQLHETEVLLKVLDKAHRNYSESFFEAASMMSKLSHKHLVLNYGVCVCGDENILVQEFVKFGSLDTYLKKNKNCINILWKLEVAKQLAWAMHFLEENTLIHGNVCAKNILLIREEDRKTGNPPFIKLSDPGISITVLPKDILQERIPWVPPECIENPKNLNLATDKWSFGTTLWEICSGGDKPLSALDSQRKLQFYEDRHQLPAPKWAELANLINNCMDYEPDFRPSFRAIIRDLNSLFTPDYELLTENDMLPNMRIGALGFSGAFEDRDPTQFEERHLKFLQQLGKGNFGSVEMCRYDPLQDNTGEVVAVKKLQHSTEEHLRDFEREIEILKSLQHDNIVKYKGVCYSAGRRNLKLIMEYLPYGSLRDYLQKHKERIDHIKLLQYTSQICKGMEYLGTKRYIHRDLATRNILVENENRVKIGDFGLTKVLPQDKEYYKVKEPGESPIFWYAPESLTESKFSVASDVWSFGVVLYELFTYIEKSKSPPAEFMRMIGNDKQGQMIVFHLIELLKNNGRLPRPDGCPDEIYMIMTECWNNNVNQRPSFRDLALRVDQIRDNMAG
Assay type: biochemical
Method: as §1, §2, §3, §4, §5, §6, §7

Row | IC50 [nM] | Compound
43 | 100 to 500 | CN(C)S(=O)(=O)CCNC(=O)c1noc2c1CN(c1ncnc3[nH]ccc13)CC2 [Compound 156]
44 | 500 to 2000 | O=C(NCCC(F)(F)F)c1noc2c1CN(c1ncnc3[nH]cnc13)CC2 [Compound 188]
45 | 500 to 2000 | O=C(NCCS(=O)(=O)N1CCC1)c1noc2c1CN(c1ncnc3[nH]ccc13)CC2 [Compound 134]
46 | 100 to 500 | Cn1nc(C(=O)NCCC(F)(F)F)c2c1CCN(c1ncnc3[nH]ccc13)C2 [Compound 107]
47 | 100 to 500 | O=C(NCCS(=O)(=O)N1CCCC1)c1noc2c1CN(c1ncnc3[nH]ccc13)CC2 [Compound 135]
48 | > 2000 | O=C(NCCC(F)(F)F)c1nn(CCCc2ccccc2)c2c1CN(c1ncnc3[nH]ccc13)CC2 [Compound 115]
49 | 500 to 2000 | O=C(NCCC(F)(F)F)c1nn(-c2ccccc2)c2c1CN(c1ncnc3[nH]ccc13)CC2 [Compound 114]
50 | 100 to 500 | O=C(NCCc1ccccc1)c1noc2c1CN(c1ncnc3[nH]ccc13)CC2 [Compound 163]
51 | 100 to 500 | Cn1cc(C(=O)NCCC(F)(F)F)c2c1CCN(c1ncnc3[nH]ccc13)C2 [Compound 130]
52 | > 2000 | Cn1nc(C(=O)N[C@H]2C[C@H](C(=O)NCCC(F)(F)F)C2)c2c1CCN(c1ncnc3[nH]ccc13)C2 [Compound 124]
53 | 500 to 2000 | O=C(NCCC1(O)CC(F)(F)C1)c1noc2c1CN(c1ncnc3[nH]ccc13)CC2 [Compound 149]
54 | 100 to 500 | O=C(NCCCC1(O)CC1)c1noc2c1CN(c1ncnc3[nH]ccc13)CC2 [Compound 144]
55 | 100 to 500 | CSC(CNC(=O)c1noc2c1CN(c1ncnc3[nH]ccc13)CC2)C(F)(F)F (centres unmarked) [Compound 191]
56 | 100 to 500 | O=C(NCC1CC1)c1noc2c1CN(c1ncnc3[nH]ccc13)CC2 [Compound 180]
